# Measured values as given in patent US20230165979A1, “COPPER-CONTAINING THERAGNOSTIC COMPOSITIONS AND METHODS OF USE” (Cornell University, priority 2020, published 2023).
# Tests used:
# LNCaP xenografts = assay: Tissue biodistribution in mice bearing LNCaP xenografts; assay type: in vivo, male Balb/C nu/nu mice; conditions: for activity in kidneys / tumor uptake: i.v., ±SEM
# Procedure: All animal studies were approved by the Institutional Animal Care and Use Committee of Weill Cornell Medicine and were undertaken in accordance with the guidelines set forth by the USPHS Policy on Humane Care and Use of Laboratory Animals. The mice were housed under standard conditions in approved facilities with 12 h light/dark cycles. Food and water was provided ad libitum throughout the course of the studies. Male BALB/c athymic nu/nu mice were purchased from the Jackson Laboratory (USA). Prior to inoculation, LNCaP cells were suspended at a density of 4×10^7 cells/mL in a 1:1 mixture of PBS (VWR, USA):Matrigel (BD Biosciences, USA). Each mouse was injected subcutaneously in the left flank with 0.25 mL of the cell suspension. The animals were monitored twice weekly until palpable tumors emerged.
# When tumor size reached approximately 200 mm^3, mice (n=4/time point) were administered 3.8±0.1 MBq [^64Cu]Cu-RPS-085 or 0.8±0.005 MBq [^67Cu]Cu-RPS-085 by intravenous injection. The total mass dose received by each animal was approximately 50 ng (31 pmol) and approximately 28 ng (17 pmol) for the [^64Cu]Cu-RPS-085 and [^67Cu]Cu-RPS-085 studies, respectively. The mice were sacrificed at 4 h, 24 h, or 48 h p.i. ([^64Cu]Cu-RPS-085) or 4 h, 24 h, and 96 h ([^67Cu]Cu-RPS-085). A blood sample was collected, and the following tissues were collected and weighed wet using a digital balance: heart, lungs, liver, stomach, small intestine, large intestine, spleen, pancreas, kidneys, muscle, bone, and tumor. The tissues were counted on a Wizard2 Automatic Gamma Counter (Perkin Elmer, USA) against a 1% injected dose standard. The counts were corrected for decay and for activity injected, and tissue uptake was expressed as percent injected dose per gram (% ID/g). Standard error of the mean (SEM) was calculated for each data point. Statistical analyses were performed using an unpaired t test with GraphPad Prism software. A P value of less than 0.05 was considered significant. The concentration of [67Cu]Cu-RPS-085 found in blood, heart, lungs, liver, small intestine, large intestine, stomach, spleen, pancreas, kidneys, muscle, and bone at 4 h, 24 h, and 96 h, post injection (n=4 per time point) is shown in Table 1 below. Published values for [177Lu]Lu-RPS-063 are shown for comparison; all concentrations are expressed as percent injected dose per organ.
# Plasma stability = assay type: in vitro ADME, human; conditions: 24 h, 37° C.
# Procedure: The plasma stability of [^67Cu]Cu-RPS-085 was determined according to previously described methods (Alt, et al., Mol Pharmaceutics. 2014; 11: 2855-63). Briefly, frozen human plasma was purchased from Sigma Aldrich (USA), thawed at 37° C., and 200 μL aliquots were transferred to Eppendorf tubes. A 100 μL aliquot of [^67Cu]Cu-RPS-085 in 10% EtOH/saline was added to each tube, and the mixture was shaken at 300 rpm for 24 h at 37° C. on an Eppendorf ThermoMixer® C (VWR, USA). The experiment was performed in triplicate. The proteins were precipitated by addition of 600 μL acetonitrile. The samples were centrifuged at 13500 rpm for 3 min in an Eppendorf 5424-R Centrifuge. The supernatant was analyzed by analytical reverse phase (radio)HPLC as described above. After 24 h incubation in human plasma, [^67Cu]Cu-RPS-085 was 97.4±0.4% intact. The lone radiochemical impurity was an unidentified fragment of the parent compound.
# PSMA on LNCaP cells = biological target: T1, PSMA on LNCaP cells (Homo sapiens, UniProt Q04609); assay: Multi-concentration competitive binding assay against 99mTc-MIP-1427
# T1 construct: host or cells: LNCaP
# Procedure: The PSMA-expressing human prostate cancer cell line, LNCaP, was obtained from the American Type Culture Collection. Cell culture supplies were obtained from Invitrogen (USA) unless otherwise noted. LNCaP cells were maintained in RPMI-1640 medium supplemented with 10% fetal bovine serum (Hyclone), 4 mM L-glutamine, 1 mM sodium pyruvate, 10 mM N-2-hydroxyethylpiperazine-N-2-ethanesulfonic acid (HEPES), 2.5 mg/mL D-glucose, and […] gentamicin in a humidified incubator at 37° C./5% CO2. Cells were removed from flasks for passage or for transfer to 12-well assay plates by incubating them with 0.25% trypsin/ethylenediaminetetraacetic acid (EDTA).
# The IC50 of metal-free RPS-085 was determined in a multi-concentration competitive binding assay against ^99mTc-MIP-1427 (Hillier et al., J Nucl Med. 2013; 54: 1369-76) for binding to PSMA on LNCaP cells, according to previously described methods (Kelly et al., Eur J Nucl Med Mol Imaging. 2018; 45: 1841-51). RPS-085 was added in to the wells in final concentrations ranging from 1 pM-10 μM. The assay was performed in triplicate, and the IC50 was expressed as mean±standard deviation.
# T1 sequence (Q04609 whole entry): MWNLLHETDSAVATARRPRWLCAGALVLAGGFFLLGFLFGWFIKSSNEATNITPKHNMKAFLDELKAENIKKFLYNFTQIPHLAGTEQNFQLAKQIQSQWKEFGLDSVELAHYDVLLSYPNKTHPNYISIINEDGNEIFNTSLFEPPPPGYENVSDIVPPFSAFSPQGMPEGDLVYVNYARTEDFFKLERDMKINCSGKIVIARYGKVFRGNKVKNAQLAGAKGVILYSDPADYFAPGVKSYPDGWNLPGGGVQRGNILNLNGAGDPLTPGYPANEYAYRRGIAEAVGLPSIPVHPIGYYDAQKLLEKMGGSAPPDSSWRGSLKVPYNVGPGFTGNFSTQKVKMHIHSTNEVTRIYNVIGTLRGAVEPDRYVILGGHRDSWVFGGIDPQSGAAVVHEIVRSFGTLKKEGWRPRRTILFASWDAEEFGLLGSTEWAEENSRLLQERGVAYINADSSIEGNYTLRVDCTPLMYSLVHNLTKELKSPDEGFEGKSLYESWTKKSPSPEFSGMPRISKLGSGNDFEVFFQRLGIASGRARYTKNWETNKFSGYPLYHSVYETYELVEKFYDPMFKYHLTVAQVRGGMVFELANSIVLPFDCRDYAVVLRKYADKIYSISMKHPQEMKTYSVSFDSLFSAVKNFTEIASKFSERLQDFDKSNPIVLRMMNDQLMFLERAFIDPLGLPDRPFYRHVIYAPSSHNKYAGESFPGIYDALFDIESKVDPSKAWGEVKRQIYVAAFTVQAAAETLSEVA
compound,measurement,setting,value
CC12CNCCNCC(NC(=O)CCCC(=O)NCCCC[C@H](NC(=O)CCOCCOCCOCCn3cc(-c4cccc(NC(=O)NCCCC[C@H](NC(=O)N[C@@H](CCC(=O)O)C(=O)O)C(=O)O)c4)nn3)C(=O)N[C@@H](CCCCNC(=O)Cc3ccc(I)cc3)C(=O)O)(CNCCNC1)CNCCNC2.[67Cu+2] [[^67Cu]Cu-RPS-085],activity in kidneys,LNCaP xenografts; 4 h p.i.,19.7±5.0 % ID/g
same,tumor uptake,LNCaP xenografts; 4 h p.i.,12.5±2.7 % ID/g
same,Concentration in Blood,LNCaP xenografts; 4 h post injection,0.02057 percent injected dose per organ
same,Concentration in Bone,LNCaP xenografts; 4 h post injection,0.003853 percent injected dose per organ
same,Concentration in Heart,LNCaP xenografts; 4 h post injection,0.01078 percent injected dose per organ
same,Concentration in Kidneys,LNCaP xenografts; 4 h post injection,11.63 percent injected dose per organ
same,Concentration in Large Intestine,LNCaP xenografts; 4 h post injection,0.29 percent injected dose per organ
same,Concentration in Liver,LNCaP xenografts; 4 h post injection,0.2795 percent injected dose per organ
same,Concentration in Lungs,LNCaP xenografts; 4 h post injection,0.0358 percent injected dose per organ
same,Concentration in Muscle,LNCaP xenografts; 4 h post injection,0.002757 percent injected dose per organ
same,Concentration in Pancreas,LNCaP xenografts; 4 h post injection,0.00535 percent injected dose per organ
same,Concentration in Small Intestine,LNCaP xenografts; 4 h post injection,0.1493 percent injected dose per organ
same,Concentration in Spleen,LNCaP xenografts; 4 h post injection,0.02732 percent injected dose per organ
same,Concentration in Stomach,LNCaP xenografts; 4 h post injection,0.05547 percent injected dose per organ
same,activity in kidneys,LNCaP xenografts; 24 h p.i.,4.5±0.8 % ID/g
same,tumor uptake,LNCaP xenografts; 24 h p.i.,7.9±0.9 % ID/g
same,Concentration in Blood,LNCaP xenografts; 24 h post injection,0.005816 percent injected dose per organ
same,Concentration in Bone,LNCaP xenografts; 24 h post injection,0.001592 percent injected dose per organ
same,Concentration in Heart,LNCaP xenografts; 24 h post injection,0.0068 percent injected dose per organ
same,Concentration in Kidneys,LNCaP xenografts; 24 h post injection,1.857 percent injected dose per organ
same,Concentration in Large Intestine,LNCaP xenografts; 24 h post injection,0.1354 percent injected dose per organ
same,Concentration in Liver,LNCaP xenografts; 24 h post injection,0.1811 percent injected dose per organ
same,Concentration in Lungs,LNCaP xenografts; 24 h post injection,0.01881 percent injected dose per organ
same,Concentration in Muscle,LNCaP xenografts; 24 h post injection,0.001018 percent injected dose per organ
same,Concentration in Pancreas,LNCaP xenografts; 24 h post injection,0.002143 percent injected dose per organ
same,Concentration in Small Intestine,LNCaP xenografts; 24 h post injection,0.08652 percent injected dose per organ
same,Concentration in Spleen,LNCaP xenografts; 24 h post injection,0.008292 percent injected dose per organ
same,Concentration in Stomach,LNCaP xenografts; 24 h post injection,0.04228 percent injected dose per organ
same,tumor-to-kidney ratio,LNCaP xenografts; 96 h p.i.,3.0±0.5
same,activity in kidneys,LNCaP xenografts; 96 h p.i.,1.7±0.3 % ID/g
same,tumor uptake,LNCaP xenografts; 96 h p.i.,5.1±3.3 % ID/g
same,Concentration in Blood,LNCaP xenografts; 96 h post injection,0.003526 percent injected dose per organ
same,Concentration in Bone,LNCaP xenografts; 96 h post injection,0.001075 percent injected dose per organ
same,Concentration in Heart,LNCaP xenografts; 96 h post injection,0.008094 percent injected dose per organ
same,Concentration in Kidneys,LNCaP xenografts; 96 h post injection,0.6854 percent injected dose per organ
same,Concentration in Large Intestine,LNCaP xenografts; 96 h post injection,0.1379 percent injected dose per organ
same,Concentration in Liver,LNCaP xenografts; 96 h post injection,0.1208 percent injected dose per organ
same,Concentration in Lungs,LNCaP xenografts; 96 h post injection,0.01063 percent injected dose per organ
same,Concentration in Muscle,LNCaP xenografts; 96 h post injection,0.000956 percent injected dose per organ
same,Concentration in Pancreas,LNCaP xenografts; 96 h post injection,0.003044 percent injected dose per organ
same,Concentration in Small Intestine,LNCaP xenografts; 96 h post injection,0.06091 percent injected dose per organ
same,Concentration in Spleen,LNCaP xenografts; 96 h post injection,0.005006 percent injected dose per organ
same,Concentration in Stomach,LNCaP xenografts; 96 h post injection,0.04483 percent injected dose per organ
same,accumulated activity (Ã) in kidneys,LNCaP xenografts; over 96 h p.i.,538 (% ID/g)·h
same,accumulated activity (Ã) in tumors,LNCaP xenografts; over 96 h p.i.,699 (% ID/g)·h
same,Ãtumor relative to [177Lu]PSMA-617,LNCaP xenografts; over 96 h p.i.,1.3 times
same,Ãtumor/Ãkidney ratio,LNCaP xenografts; over 96 h p.i.,1.3
same,fraction intact after incubation in human plasma,Plasma stability,97.4±0.4%
same,uncomplexed [67Cu]Cu2+ after incubation in human plasma,Plasma stability,No uncomplexed [^67Cu]Cu^2+ was observed
CC12CNCCNCC(NC(=O)CCCC(=O)NCCCC[C@H](NC(=O)CCOCCOCCOCCn3cc(-c4cccc(NC(=O)NCCCC[C@H](NC(=O)N[C@@H](CCC(=O)O)C(=O)O)C(=O)O)c4)nn3)C(=O)N[C@@H](CCCCNC(=O)Cc3ccc(I)cc3)C(=O)O)(CNCCNC1)CNCCNC2 [RPS-085],IC50,PSMA on LNCaP cells,29.1 ± 2.4 nM
same,affinity for PSMA relative to parent compound RPS-063,PSMA on LNCaP cells,reduced by approximately one order of magnitude
